Here are results for eight compounds from patent US4818764A, “Imidazoline derivative and method of treating depression therewith” (priority 1980, dated 1989).

For assay [1], the system named is postsynaptic α-adrenoreceptor. Nature of the assay: Antagonism of clonidine postsynaptic effects (blood pressure increases) after oral dosing, pithed rat. The assay is classed as in vivo.
For assay [2], the system named is presynaptic α-adrenoreceptor. Nature of the assay: Presynaptic α-adrenoreceptor antagonism in the pithed rat: vas deferens, intravenous activity. Format: in vivo. Particulars: for i.v. dose of antagonist causing 50% reversal of clonidine block on vas deferens: pithed rat, clonidine 100 μg/kg i.v., cumulative i.v. dosing, mean of minimum 4 rats. On the procedure:
This test model extends the evaluation of presynaptic α-adrenoreceptor antagonism versus clonidine on the rat vas deferens to the in vivo situation. Blood pressure and stimulation induced contractions of the vas deferens were monitored in pithed rats using the method of Brown, J., Doxey, J. C., Handley, S. and Virdee, N., Recent Advances in the Pharmacology of Adrenoceptors, Elsevier North Holland, 1978. Clonidine (100 μg/kg, i.v.) causes a prolonged pressor response and a prolonged inhibition of vas deferens contractions. The test drugs were injected intravenously in a cumulative dosing schedule and their abilities to reverse the inhibition of hypogastric nerve stimulation reflected their presynaptic antagonism.

The test system of another assay is DOCA hypertensive rats. The assay can be described thus: Effect on blood pressure and heart rate of conscious DOCA hypertensive rats. The assay is classed as in vivo, rat. The text has this:
Results are given in Table 5 in terms of peak percentage fall in B.P.

For assay [3], the system named is presynaptic α-adrenoreceptor. The assay can be described thus: Reversal of guanabenz block of the anococcygeus muscle of the pithed rat, intravenous. Format: in vivo. Particulars: for Intravenous dose of antagonist causing 50% reversal of guanabenz block of anococcygeus muscle: pithed rat, guanabenz acetate 30 μg/kg i.v.
The test system of assay [4] is clonidine-induced hypothermia. The assay can be described thus: Antagonism of clonidine-induced hypothermia in mice. Format: in vivo.
Assay [5] has as its target T1, presynaptic α2-adrenoreceptor (rat vas deferens) (Rattus norvegicus, UniProt P22909).
T1 construct: Pre- and postsynaptic α-adrenoreceptor antagonism in isolated tissue experiments; from tissue; host or cells: isolated rat vas deferens
T1 sequence (P22909 1-465): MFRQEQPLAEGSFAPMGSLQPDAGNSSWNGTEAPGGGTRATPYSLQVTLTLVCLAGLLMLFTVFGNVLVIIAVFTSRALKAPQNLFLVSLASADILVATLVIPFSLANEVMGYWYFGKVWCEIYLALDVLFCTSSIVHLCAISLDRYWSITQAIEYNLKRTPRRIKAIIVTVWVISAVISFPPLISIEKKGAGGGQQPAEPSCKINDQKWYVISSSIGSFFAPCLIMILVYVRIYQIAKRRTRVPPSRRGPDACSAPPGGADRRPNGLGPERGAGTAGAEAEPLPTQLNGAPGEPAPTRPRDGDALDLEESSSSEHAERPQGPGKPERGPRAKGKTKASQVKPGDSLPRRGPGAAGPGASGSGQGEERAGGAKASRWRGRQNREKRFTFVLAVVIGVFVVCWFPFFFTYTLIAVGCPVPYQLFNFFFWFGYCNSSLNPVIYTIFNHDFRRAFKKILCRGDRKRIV
Nature of the assay: Presynaptic α-adrenoreceptor antagonism vs clonidine in isolated rat vas deferens (0.1 Hz stimulation). The assay is classed as cell-based. The text has this:
(§1) This in vitro model is particularly useful as an initial screen for studying presynaptic activity in isolation since the physiological nature of the vas deferens tissue is such that the post synaptic receptors located therein are particularly inaccessible to exogenous agents. In consequence an alternative tissue, the rat anococcygeus muscle is used to establish postsynaptic α-adrenoreceptor activity. Antagonism of noradrenaline contractions is used to determine pA2 values at postsynaptic α-adrenoreceptors. The ratio of presynaptic α-adrenoreceptor antagonism (versus clonidine on the rat vas deferens) to postsynaptic α-adrenoreceptor antagonism (versus noradrenaline contractions on the rat anococcygeus muscle) is used to assess adrenoreceptor selectivity.

Assay [6] has as its system postsynaptic α-adrenoreceptors (rat anococcygeus muscle). Nature of the assay: Postsynaptic α-adrenoreceptor antagonism vs noradrenaline contractions in isolated rat anococcygeus muscle. The assay is classed as cell-based. Particulars: mean of minimum 5 experiments, "<" means inactive at a concentration which would have given the pA indicated.
From the text: as §1

Assay [7] concerns presynaptic α-adrenoreceptor. Nature of the assay: Presynaptic α-adrenoreceptor antagonism in the pithed rat: vas deferens, oral activity. The note with it: 1.0 and 5.0 mg/kg. The assay is classed as in vivo. The text has this: Thirty minutes after oral administration, the rats were pithed so as to allow electrically-induced contractions of the vas deferens to be studied in situ.

The test system of assay [8] is presynaptic α-adrenoreceptor. The assay can be described thus: Reversal of clonidine inhibition of the anococcygeus muscle of the pithed rat, intravenous. Particulars: 0.3-1.0 mg/kg, i.v.; 1 Hz stimulation. The assay is classed as in vivo. The text has this: In contrast to the rat vas deferens, both the pre- and postsynaptic adrenoreceptors of the rat anococcygeus muscle are readily accessible to exogenously applied agents and therefore this test can be used to distinguish selective presynaptic α-adrenoreceptor antagonists from non-selective agents. Contractions of the rat anococcygeus muscle induced by low frequency (1 Hz) electrical stimulation of spinal sympathetic outflow are inhibited by low doses of clonidine. Only selective presynaptic α-adrenoreceptor antagonists will reverse the inhibitory effects of clonidine.

The test system of assay [9] is postsynaptic α-adrenoreceptor. The assay can be described thus: Pressor responses in the pithed rat on intravenous administration. The note with it: 1-10 mg/kg, i.v. Format: in vivo.

Entries after “also recorded” stand apart in the source; their conditions may differ. Where a name gives a salt, the structure may show the parent alone.

For the compound `c1ccc2c(c1)OCC(C1=NCCN1)O2` (stereo not drawn) [Compound A, 2-[2-(1,4-Benzodioxanyl)]-2-imidazoline hydrochloride], the “inhibition of the clonidine postsynaptic effects (blood pressure increases)” value was “No inhibition” in assay [1] (1.0 mg/kg p.o.) and “some antagonism was observed” in [1] (5.0 mg/kg p.o.). Also, the “presynaptic α-adrenoreceptor antagonist potency, rank among compounds studied” value is listed as “clearly the most potent presynaptic α-adrenoreceptor antagonist of those studied” in assay [2] (pithed rat vas deferens, i.v., Table 2); “the most potent presynaptic α-adrenoreceptor antagonist studied” in [3] (pithed rat anococcygeus, i.v.); “the most potent presynaptic α-adrenoreceptor antagonist” in [5] (Table 1). In [2], the “i.v. dose of antagonist causing 50% reversal of clonidine block on vas deferens” value came to 0.009 mg/kg. Also, the “peak percentage fall in B.P.” value in the assay with DOCA hypertensive rats (1.0 mg/kg, oral) is reported as -4%; with DOCA hypertensive rats (5.0 mg/kg, oral), -28%; in the assay with DOCA hypertensive rats (20.0 mg/kg, oral), -39%. Besides, the “blood pressure effect (in words)” value with DOCA hypertensive rats (1.0 mg/kg, oral, hydrochloride) is given as “did not significantly alter blood pressure; also recorded: does not possess antihypertensive activity”. Further, in the assay on DOCA hypertensive rats (5.0 and 20.0 mg/kg, oral, hydrochloride), the “mean arterial blood pressure effect (in words)” value was “dose-related falls in mean arterial blood pressure”. Further, the “heart rate effect (in words)” value with DOCA hypertensive rats (three doses (1.0, 5.0 and 20.0 mg/kg), oral) is recorded as “No significant effect on heart rate”. In addition, in assay [3], the “Intravenous dose of antagonist causing 50% reversal of guanabenz block of anococcygeus muscle” value turned out to be 0.021 mg/kg. For the same compound, the “reversal of clonidine-induced hypothermia (in words)” value in assay [4] (0.1-1.0 mg/kg, i.v.) is listed as “statistically significant dose-related reversal”. In addition, the “Postsynaptic antagonism pA2 vs Noradrenaline (anococcygeus)” value in [6] worked out at 6.2. The “antagonism of the presynaptic action of clonidine (in words)” value in assay [7] is reported as “dose-dependent competitive antagonism”.

Take `COC(=O)[C@@H]1[C@H]2C[C@H]3c4[nH]c5ccccc5c4CCN3C[C@@H]2CC[C@@H]1O` [Yohimbine]: the “reversal of the inhibitory action of clonidine on the anococcygeus muscle” value in assay [8] is listed as “fully reversed”.

Take `CN1CCN2c3ccccc3Cc3ccccc3C2C1` (stereo not drawn) [Mianserin HCl]: the “i.v. dose of antagonist causing 50% reversal of clonidine block on vas deferens” value in assay [2] is listed as above 4.4 mg/kg.

Regarding `Cc1ccc(N(CC2=NCCN2)c2cccc(O)c2)cc1` [Phentolamine mesylate], the “i.v. dose of antagonist causing 50% reversal of clonidine block on vas deferens” value in [2] was 0.12 mg/kg. Moreover, in assay [3], the “Intravenous dose of antagonist causing 50% reversal of guanabenz block of anococcygeus muscle” value is above 1.4 mg/kg.

In the case of `CN1CCN2c3ccccc3Cc3ccccc3C2C1` (stereo not drawn) [Mianserin], in [2] (cumulative i.v. dose 4.4 mg/kg), the “maximum reversal of the inhibitory effects of clonidine on hypogastric nerve stimulation” value stood at 36%.

As for `COC(=O)[C@@H]1[C@H]2C[C@H]3c4[nH]c5ccccc5c4CCN3C[C@@H]2CC[C@@H]1O` [Yohimbine HCl], the “i.v. dose of antagonist causing 50% reversal of clonidine block on vas deferens” value in assay [2] is given as 0.86 mg/kg. For the same compound, the “Intravenous dose of antagonist causing 50% reversal of guanabenz block of anococcygeus muscle” value in assay [3] came to 0.280 mg/kg.

Consider `CC1(C2=NCCN2)Oc2ccccc2O1` [Compound B, 2-[2-(2-methyl-1,3-benzodioxyl)]-2-imidazoline hydrochloride], for which the “maximum reversal of the inhibitory effects of clonidine on hypogastric nerve stimulation” value in assay [2] (cumulative i.v. dose 14.4 mg/kg) amounted to 66%. Besides, in assay [2], the “i.v. dose of antagonist causing 50% reversal of clonidine block on vas deferens” value amounted to 5.60 mg/kg. For the same compound, in the assay on DOCA hypertensive rats (1.0 mg/kg, oral), the “blood pressure effect (in words)” value is “significant antihypertensive effect” and the “peak percentage fall in B.P.” value is on record as -15%. Besides, the “peak percentage fall in B.P.” value in the assay on DOCA hypertensive rats (5.0 mg/kg, oral) is -25%. The “peak percentage fall in B.P.” value with DOCA hypertensive rats (20.0 mg/kg, oral) is reported as -14%. In addition, the “maximum hypotensive effect following 20 mg/kg (in words)” value in the assay with DOCA hypertensive rats (20 mg/kg, p.o. versus 5 mg/kg, p.o.) is reported as “less than that produced by 5 mg/kg, p.o. compound B”. In addition, in the assay on DOCA hypertensive rats (1-20 mg/kg, p.o.), the “dose-relation of the falls in blood pressure (in words)” value is reported as “not dose-related”. For the same compound, the “pressor responses / postsynaptic α-adrenoreceptor agonist activity (in words)” value in [9] is given as “pressor responses in the pithed rat were seen”. Besides, in assay [4] (30 mg/kg i.v.), the “effect on clonidine-induced hypothermia (in words)” value was “potentiated the clonidine-induced hypothermia”. Also, in [4] (1-10 mg/kg, i.v.), the “reversal of clonidine-induced hypothermia (in words)” value was “partial reversal” and the “reversal of clonidine-induced hypothermia compared with vehicle (significance, in words)” value is given as “not significantly different from animals treated with vehicle”. The Kb in [5] (isolated rat vas deferens, 0.1 Hz, mean of minimum 5 experiments, "<" means inactive at a concentration which would have given the pA indicated, read-out: Presynaptic antagonism pA2 vs Clonidine (vas deferens) (converted)) is 631 nM. Further, the Pre/postsynaptic ratio in [5] (presynaptic antagonism (vs clonidine, vas deferens) to postsynaptic antagonism (vs noradrenaline, anococcygeus)) is on record as above 67. Also, the “Postsynaptic antagonism pA2 vs Noradrenaline (anococcygeus)” value in assay [6] was below 4.4.

On to `Cc1ccc(N(CC2=NCCN2)c2cccc(O)c2)cc1` [Phentolamine], for which, in the assay on DOCA hypertensive rats (1.0 mg/kg, oral), the “blood pressure effect (in words)” value is “reduced blood pressure”. Moreover, the “peak percentage fall in B.P.” value with DOCA hypertensive rats (1.0 mg/kg, oral) was -16%; in the assay with DOCA hypertensive rats (5.0 mg/kg, oral) it was -24%; in the assay with DOCA hypertensive rats (20.0 mg/kg, oral), -41%. In addition, the “heart rate effect (in words)” value was “reflexly elevated” in the assay with DOCA hypertensive rats (20 mg/kg, oral); “not greatly affected” in the assay on DOCA hypertensive rats (two smaller doses (1.0 and 5.0 mg/kg), oral). The “presynaptic α-adrenoreceptor antagonist activity (in words)” value in [3] (cumulative i.v. dose of 1.4 mg/kg) was “devoid of presynaptic α-adrenoreceptor antagonist activity”.
